Experimental findings from patent publication US7326700B2, “Cyclohexenyl phenyl carboxamides tocolytic oxytocin receptor antagonists” (Wyeth, priority 2001, dated 2008) are described below.

Where a name gives a salt, the structure may show the parent alone.

The first assay addresses T1, human oxytocin receptor (Homo sapiens, UniProt P30559).
T1 construct: host or cells: CHO cells, stably transfected (pcDNA3.1 vector)
T1 sequence (P30559 1-389): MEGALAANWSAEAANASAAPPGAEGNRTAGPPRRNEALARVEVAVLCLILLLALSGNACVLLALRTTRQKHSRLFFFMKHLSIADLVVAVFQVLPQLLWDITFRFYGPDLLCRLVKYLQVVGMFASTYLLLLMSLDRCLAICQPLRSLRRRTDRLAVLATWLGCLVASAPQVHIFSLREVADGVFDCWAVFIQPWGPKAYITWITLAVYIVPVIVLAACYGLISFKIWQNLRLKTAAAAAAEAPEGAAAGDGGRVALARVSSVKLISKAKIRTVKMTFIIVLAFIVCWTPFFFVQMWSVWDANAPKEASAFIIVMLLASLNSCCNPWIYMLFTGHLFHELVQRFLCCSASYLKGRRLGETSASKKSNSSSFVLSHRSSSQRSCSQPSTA
The assay can be described thus: Oxytocin binding in CHO cell membranes expressing human oxytocin receptors ([3H]oxytocin radioligand binding). The following applies: 100 nM. An excerpt:
Chinese Hamster Ovary (CHO) cells stably transfected with the human oxytocin recptor (cf. Tanizawa et al., U.S. Pat. No. 5,466,584 (1995) to Rohto Pharmaceutical Co. Ltd., Osaka, Japan) were obtained from M. Thibonnier, Case Western Reserve University School of Medicine, Cleveland, Ohio.
CHO cells transfected with the human oxytocin receptors obtained from M. Thibonnier (pcDNA3.1 vector) are allowed to grow to confluency (approx. >90%) in T-150 flasks under sterile conditions, in a cell culture medium consisting of F-12 Nutrient Mixture (HAM) with L-glutamine (Gibco Cat. #11765-054) containing 15 mM HEPES (Gibco Cat. #15630-080), 1% antibiotic/antimycotic (add 5 mL 1 00×, Gibco Cat. #15240-062 per 500 mL F-12), 400 μg/mL of Geneticin (add 4 mL of 50 mg/mL per 500 mL F-12) and 10% Fetal Bovine Serum (Qualified, heat inactivated, Gibco Cat. #16140-063). The medium is removed by aspiration and the cells are washed with 10 mL of Hank's Balanced Salt solution (Gibco Cat. #14175-095). The salt solution is removed by aspiration and the cells trypsinized with 5 mL of trypsin-EDTA (0.05% trypsin, 0.53 mM EDTA-4Na, Gibco Cat. #25300-070) for 1 min The trypsin is removed by aspiration and the cells dislodged by tapping. Cell Culture medium (e.g. 30 mL for 1:30 split) is immediately added and mixed well to inactivate trypsin. 1 mL of detached cells is added to new culture flasks containing fresh Cell Culture medium (e.g. into 25 mL per T-150 flask), and mixed gently. The cells are incubated at 37° C. in 5% CO2. The medium is changed at 3 to 4 days interval (or as appropriate). The cells grow to confluency (approx. >75%-95%) within 7-8 days. All steps are done under sterile conditions.
The cells are washed twice gently with Hank's Balanced Salt solution (eg, use 10 mL per T-150 flask). The excess solution is removed and the cells bathed for 15-30 min. in an enzyme-free Cell Dissociation Buffer (eg, use 8 mL Hank's Based, Gibco Cat. #13150-016 per T-150 flask) until cells are loosened. The contents are transferred to centrifuge tubes (50 mL size) kept in ice bath. All subsequent steps are done at 4° C. The tubes are centrifuged at 300×g for 15 min (1380 rpm on SORVAL, Model RT6000D, using rotor for 50 mL tubes). The supernatant is discarded and the cells suspended in homogenizing buffer (10 mM Tris-HCl containing 0.25 M sucrose and 1 mM EDTA, pH 7.4) ensuring that the volume of the buffer is about ten times the volume of the cell pellet. The cells are pooled into a centrifuge tube (50 mL) and homogenized with a Polytron at setting 6 for 10 sec. The homogenate is transferred into a Potter-Elvjehm homogenizer and homogenized with 3 strokes. The homogenate is centrifuged at 1500×g for 10 min at 4° C. (3100 rpm using SORVAL, model RT6000D, using rotor for 50 mL tubes). The pellet is discarded. The supernatant is centrifuged at 100,000×g for 60 min. at 4° C. (Beckman L8-80M ultracentrifuge; spin at 37,500 rpm with rotor type 70 Ti for 50 mL tubes; 38,000 rpm with type 80 Ti for 15 mL tubes; or 35,800 rpm with rotor type 45Ti). The supernantant is discarded and the pellet suspended in 3 to 4 mL of Tris buffer (50 mM TRIS-HCl, pH 7.4). The protein content is estimated by the Bradford or Lowry method. The volume of the membrane suspension is adjusted with the membrane buffer (50 mM Tris-HCl containing 0.1% BSA and 0.1 mM PMSF) to give 3.0 mg/mL (or as appropriate) of protein. The membranes are aliquoted and stored at −70° C.
In wells of a 96-well format microtiter plate, is added 90, 110 or 130 μL (to make up a final volume of 200 μL) of assay buffer containing 50 mM of Tris-HCl (pH 7.4), […], 1 mg % aprotinin, 1 mg % leupeptin, 2 mg % 1,10-phenanthroline, 10 mg % trypsin inhibitor, and 0.1 mM PMSF. The inhibitors are added on the day of the experiment. The components are mixed at room temperature, and then kept in ice bath following adjustment of the pH to 7.4. […]
As for `Cc1cc(C(=O)N2Cc3ccc(C(=O)N4CCCN(C)CC4)n3Cc3ccccc32)ccc1C1=CCCCC1` [Example 13, {10-[4-(1-Cyclohex-1-en-1-yl)-3-methylbenzoyl]-10,11-dihydro-5H-pyrrolo[2,1-c][1,4]benzodiazepin-3-yl}(4-methyl-1,4-diazepan-1-yl)methanone], the “OT % inhibition @ 100 nM” value amounted to 90%. Still for that read-out and setting: under `Cc1cc(C(=O)N2Cc3ccc(C(=O)NCCCN(C)C)n3Cc3ccccc32)ccc1C1=CCCCC1` [Example 14, 10-[4-(1-Cyclohex-1-en-1-yl)-3-methylbenzoyl]-N-[3-(dimethylamino)propyl]-10,11-dihydro-5H-pyrrolo[2,1-c][1,4]benzodiazepine-3-carboxamide] stands 57%; under `Cc1cc(C(=O)N2Cc3ccc(C(=O)N(C)CCN(C)C)n3Cc3ccccc32)ccc1C1=CCCCC1` [Example 15, 10-[4-(1-Cyclohex-1-en-1-yl)-3-methylbenzoyl]-N-[2-(dimethylamino)ethyl]-N-methyl-10,11-dihydro-5H-pyrrolo[2,1-c][1,4]benzodiazepine-3-carboxamide], 99%. Same read-out and setting: to `Cc1cc(C(=O)N2Cc3ccc(C(=O)N(C)CCCN(C)C)n3Cc3ccccc32)ccc1C1=CCCCC1` [Example 16, 10-[4-(1-Cyclohex-1-en-1-yl)-3-methylbenzoyl]-N-[3-(dimethylamino)propyl]-N-methyl-10,11-dihydro-5H-pyrrolo[2,1-c][1 ,4]benzodiazepine-3-carboxamide] belongs 99%; to `Cc1cc(C(=O)N2Cc3ccc(C(=O)N4CCC(N5CCCCC5)CC4)n3Cc3ccccc32)ccc1C1=CCCCC1` [Example 17, {10-[4-(1-Cyclohex-1-en-1-yl)-3-methylbenzoyl]-10,11-dihydro-5H-pyrrolo[2,1-c][1,4]benzodiazepin-3-yl}[4-(1-piperidinyl)-1-piperidinyl]methanone], 86%.

For `Cc1cc(C(=O)N2Cc3ccc(C(=O)NCCCn4ccnc4)n3Cc3ccccc32)ccc1C1=CCCCC1` [Example 18, 10-[4-(1-Cyclohex-1-en-1-yl)-3-methylbenzoyl]-N-[3-(1H-imidazol-1-yl)propyl]10,11-dihydro-5H-pyrrolo[2,1-c][1,4]benzodiazepine-3-carboxamide], the “OT % inhibition @ 100 nM” value is reported as 41%. Regarding `Cc1cc(C(=O)N2Cc3ccc(C(=O)N4CCC(N5CCCC5)CC4)n3Cc3ccccc32)ccc1C1=CCCCC1` [Example 19, {10-[4-(1-Cyclohex-1-en-1-yl)-3-methylbenzoyl]-10,11-dihydro-5H-pyrrolo[2,1c][1,4]benzodiazepin-3-yl}[4-(1-pyrrolidinyl)-1-piperidinyl]methanone], the “OT % inhibition @ 100 nM” value is on record as 82%.

Staying with this assay, now noted: 100 nM, read-out: OT % inhibition @ 100 nM.
Turning to `COc1cc(C2=CCCCC2)c(Cl)cc1C(=O)N1Cc2ccc(C(=O)N(C)CCCN(C)C)n2Cc2ccccc21` [Example 2, 10-(5-Chloro-4-cyclohex-1-en-1-yl-2-methoxybenzoyl)-N-[3-(dimethylamino)propyl]-N-methyl-10,11-dihydro-5H-pyrrolo[2,1-c][1,4]benzodiazepine-3-carboxamide], the inhibition at 0.1 µM stood at 100%. As for `Cc1cc(C(=O)N2Cc3ccc(C(=O)N4CCN(CCCN(C)C)CC4)n3Cc3ccccc32)ccc1C1=CCCCC1` [Example 5, [10-(4-Cyclohex-1-en-1-yl-3-methyl-benzoyl)-10,11-dihydro-5H-pyrrolo[2,1-c][1,4]benzodiazepin-3-yl]-[4-(3-dimethylamino-propyl)-piperazin-1-yl]-methanone], the inhibition at 0.1 µM amounted to 94%. For `Cc1cc(C(=O)N2Cc3ccc(C(=O)N4CCN(CCCN(C)C)CC4)n3Cc3ccccc32)ccc1C1=CCCc2ccccc21` [Example 7, {10-[4-(3,4-Dihydro-naphthalen-1-yl)-3-methyl-benzoyl]-10,11-dihydro-5H-pyrrolo[2,1-c][1,4]benzodiazepin-3-yl}-[4-(3-dimethylamino-propyl)-piperazin-1-yl]-methanone], the inhibition at 0.1 µM was found to be 91%. `CC1=C(c2ccc(C(=O)N3Cc4ccc(C(=O)N5CCN(C)CC5)n4Cc4ccccc43)cc2C)CCCC1O` (stereo not shown) [Example 10, [4-(3-Hydroxy-2-methyl-cyclohex-1-en-1-yl)-3-methyl-phenyl]-[3-(4-methyl-piperazine-1carbonyl)-10,11-dihydro-5H-pyrrolo[2,1-c][1,4]benzodiazepin-10-yl]-methanone]: the inhibition at 0.1 µM stood at 91%. With `CC1=C(c2ccc(C(=O)N3Cc4ccc(C(=O)N5CCN(C)CC5)n4Cc4ccccc43)cc2C)CCC[C@H]1O` [Example 11, [4-((3R)-3-Hydroxy-2-methyl-cyclohex-1-en-1-yl)-3-methyl-phenyl]-[3-(4-methyl-piperazine-1-carbonyl)-10,11-dihydro-5H-pyrrolo [2,1-c][1,4]benzodiazepin-10-yl]-methanone], the inhibition at 0.1 µM was 86%.

Still in this assay, the particulars now being: value in parentheses, read-out: OT (IC50).
As to `COc1cc(C2=CCCCC2)c(Cl)cc1C(=O)N1Cc2ccc(C(=O)N3CCC[C@H]3CN3CCCC3)n2Cc2ccccc21` [Example 1, 4-Chloro-5-cyclohex-1-en-1-yl-2-[(3-{[(2S)-2-(pyrrolidin-1-ylmethyl)pyrrolidin-1-yl]carbonyl}-5H-pyrrolo [2,1-c][1,4]benzodiazepin-10(11H)-yl)carbonyl]phenyl methyl ether], the 50% inhibitory concentration (IC50) turned out to be 1.88 nM.

Turning to `COc1cc(C2=CCCCC2)c(Cl)cc1C(=O)N1Cc2ccc(C(=O)N(C)CCCN(C)C)n2Cc2ccccc21` [Example 3, 10-(5-Chloro-4-cyclohex-1-en-1-yl-2-methoxybenzoyl)-N-[3-(dimethylamino)propyl]-N-methyl-10,11-dihydro-5H-pyrrolo[2,1-c][1,4]benzodiazepine-3-carboxamide citric acid salt], the IC50 came out at 9.04 nM.

In the case of `Cc1cc(C(=O)N2Cc3ccc(C(=O)N4CCN(C)CC4)n3Cc3ccccc32)ccc1C1=CCCCC1` [Example 4, [10-(4-Cyclohex-1-en-1-yl-3-methyl-benzoyl)-10,11-dihydro-5H-pyrrolo[2,1-c][1,4]benzodiazepin-3-yl]-(4-methyl-piperazin-1-yl)-methanone], the IC50 is 7.47 nM. Still for that read-out and setting: under `Cc1cc(C(=O)N2Cc3ccc(C(=O)N4CCN(C)CC4)n3Cc3ccccc32)ccc1C1=CCCc2ccccc21` [Example 6, {10-[4-(3,4-Dihydro-naphthalen-1-yl)-3-methyl-benzoyl]-10,11-dihydro-5H-benzo[e]pyrrolo[1,2-a][1,4]diazepin-3-yl}-(4-methyl-piperazin-1-yl)-methanone] stands 25.3 nM.
